Results from the NIST ThermoML archive (doi:10.1021/acs.jced.5b01023).

Assay: xn = mol fraction of the nth substance listed
Conditions: for surface tension liquid-gas: Wilhelmy plates; for viscosity / mass density: 101 kPa, Liquid; for viscosity: Capillary tube (Ostwald / Ubbelohde) method; for mass density: Vibrating tube method

CC(=O)[O-].CCn1cc[n+](C)c1 [1-ethyl-3-methylimidazolium acetate] + CC(C)O
Conditions	mass density [kg/m3]	surface tension liquid-gas [mN/m]	viscosity [mPa·s]
288.15 K, x1 = 0.1	852.68	23.6	5.55
288.15 K, x1 = 0.2	901.6	25.5	8.842
288.15 K, x1 = 0.3	941.78	27.5	14.85
288.15 K, x1 = 0.4	976.37	29.4	24.85
288.15 K, x1 = 0.5	1006.01	31.5	40.69
288.15 K, x1 = 0.5997	–	33	–
288.15 K, x1 = 0.5998	1031.55	–	64.17
288.15 K, x1 = 0.7	1053.83	35.1	100.7
288.15 K, x1 = 0.7993	1072.97	–	147.9
288.15 K, x1 = 0.7994	–	37.7	–
288.15 K, x1 = 0.9	1090.17	41.2	212.4
288.15 K, x1 = 1	1105.2	47.7	283.8
298.15 K, x1 = 0.1	845.22	23.2	4.171
298.15 K, x1 = 0.2	894.12	25.1	6.64
298.15 K, x1 = 0.3	934.95	26.9	10.84
298.15 K, x1 = 0.4	969.7	29	17.31
298.15 K, x1 = 0.5	999.47	31.2	26.86
298.15 K, x1 = 0.5997	–	32.6	–
298.15 K, x1 = 0.5998	1025.12	–	40.4
298.15 K, x1 = 0.7	1047.51	34.5	58.42
298.15 K, x1 = 0.7993	1066.77	–	81.31
298.15 K, x1 = 0.7994	–	37.4	–
298.15 K, x1 = 0.9	1084.05	40.9	109.9
298.15 K, x1 = 1	1099.03	47.1	139
308.15 K, x1 = 0.1	837.68	22.5	3.204
308.15 K, x1 = 0.2	887.04	24.6	5.142
308.15 K, x1 = 0.3	928.14	26.6	8.186
308.15 K, x1 = 0.4	963.07	28.3	12.6
308.15 K, x1 = 0.5	992.98	30.5	18.61
308.15 K, x1 = 0.5997	–	32.1	–
308.15 K, x1 = 0.5998	1018.74	–	26.86
308.15 K, x1 = 0.7	1041.21	34.1	36.9
308.15 K, x1 = 0.7993	1060.56	–	49.32
308.15 K, x1 = 0.7994	–	37	–
308.15 K, x1 = 0.9	1077.92	40.5	63.37
308.15 K, x1 = 1	1092.93	46.6	77.32
318.15 K, x1 = 0.1	829.99	21.8	2.511
318.15 K, x1 = 0.2	879.94	24.1	4.067
318.15 K, x1 = 0.3	921.35	26.1	6.344
318.15 K, x1 = 0.4	956.47	27.9	9.506
318.15 K, x1 = 0.5	986.52	29.9	13.61
318.15 K, x1 = 0.5997	–	31.6	–
318.15 K, x1 = 0.5998	1012.39	–	18.87
318.15 K, x1 = 0.7	1034.96	33.7	25.08
318.15 K, x1 = 0.7993	1054.38	–	32.33
318.15 K, x1 = 0.7994	–	36.8	–
318.15 K, x1 = 0.9	1071.81	40.2	40.36
318.15 K, x1 = 1	1086.86	46.1	47.37
328.15 K, x1 = 0.1	822.14	20.8	1.998
328.15 K, x1 = 0.2	872.8	23.5	3.272
328.15 K, x1 = 0.3	914.57	25.5	5.049
328.15 K, x1 = 0.4	949.91	27.4	7.378
328.15 K, x1 = 0.5	980.11	29.6	10.28
328.15 K, x1 = 0.5997	–	31.5	–
328.15 K, x1 = 0.5998	1006.1	–	13.77
328.15 K, x1 = 0.7	1028.76	33.4	17.83
328.15 K, x1 = 0.7993	1048.25	–	22.39
328.15 K, x1 = 0.7994	–	36.4	–
328.15 K, x1 = 0.9	1065.74	40	27.23
328.15 K, x1 = 1	1080.82	45.9	31.29
338.15 K, x1 = 0.1	814.08	20.1	1.617
338.15 K, x1 = 0.2	865.6	22.6	2.683
338.15 K, x1 = 0.3	907.78	25	4.086
338.15 K, x1 = 0.4	943.37	26.9	5.876
338.15 K, x1 = 0.5	973.74	29.1	8.019
338.15 K, x1 = 0.5997	–	30.7	–
338.15 K, x1 = 0.5998	999.84	–	10.46
338.15 K, x1 = 0.7	1022.6	32.9	13.23
338.15 K, x1 = 0.7993	1042.17	–	16.22
338.15 K, x1 = 0.7994	–	36	–
338.15 K, x1 = 0.9	1059.72	39.3	19.37
338.15 K, x1 = 1	1074.83	45.4	21.85
